The NIST ThermoML archive (doi:10.1016/j.fluid.2017.06.022)
“And” between values parts separate entries of the source, which are not always exact repeats. Equal values may be shown once.

Experiment: xn = mol fraction of the nth substance listed
Conditions: Liquid, Bellows volumetry

C=C [ethene] + Cc1ccccc1
Conditions	mass density
325.3 K, 3200 kPa, x1 = 0.3067	729.1 kg/m3
325.3 K, 3400 kPa, x1 = 0.3067	730.3 kg/m3
325.3 K, 4100 kPa, x1 = 0.3067	731.4 kg/m3 and 730.8 kg/m3
325.3 K, 5500 kPa, x1 = 0.3067	733.1 kg/m3
325.3 K, 6900 kPa, x1 = 0.3067	734.9 kg/m3
325.3 K, 8500 kPa, x1 = 0.3067	737.2 kg/m3
325.3 K, 10200 kPa, x1 = 0.3067	738.9 kg/m3
325.3 K, 11600 kPa, x1 = 0.3067	740.7 kg/m3
325.3 K, 13400 kPa, x1 = 0.3067	743.1 kg/m3
326.2 K, 1270 kPa, x1 = 0.1194	779.8 kg/m3
326.2 K, 1340 kPa, x1 = 0.1194	781 kg/m3
326.2 K, 2020 kPa, x1 = 0.1194	781.6 kg/m3
326.2 K, 2570 kPa, x1 = 0.1194	782.2 kg/m3
326.2 K, 3390 kPa, x1 = 0.1194	783.5 kg/m3
326.2 K, 4760 kPa, x1 = 0.1194	784.7 kg/m3
326.2 K, 5790 kPa, x1 = 0.1194	785.4 kg/m3
326.2 K, 7090 kPa, x1 = 0.1194	787.2 kg/m3
326.2 K, 10310 kPa, x1 = 0.1194	790.4 kg/m3
326.2 K, 13590 kPa, x1 = 0.1194	793.6 kg/m3
348.7 K, 1490 kPa, x1 = 0.1194	759.4 kg/m3
348.7 K, 1560 kPa, x1 = 0.1194	759.4 kg/m3
348.7 K, 1970 kPa, x1 = 0.1194	760 kg/m3
348.7 K, 2380 kPa, x1 = 0.1194	760.5 kg/m3
348.7 K, 2860 kPa, x1 = 0.1194	761.7 kg/m3
348.7 K, 3400 kPa, x1 = 0.1194	762.3 kg/m3
348.7 K, 4090 kPa, x1 = 0.1194	763.5 kg/m3
348.7 K, 5150 kPa, x1 = 0.1194	764.7 kg/m3
348.7 K, 6420 kPa, x1 = 0.1194	765.8 kg/m3
348.7 K, 10040 kPa, x1 = 0.1194	770 kg/m3
348.7 K, 13810 kPa, x1 = 0.1194	774.9 kg/m3
348.7 K, 16900 kPa, x1 = 0.1194	777.9 kg/m3
348.7 K, 21130 kPa, x1 = 0.1194	782.2 kg/m3
348.7 K, 23670 kPa, x1 = 0.1194	785.4 kg/m3
348.7 K, 27850 kPa, x1 = 0.1194	789.1 kg/m3
348.7 K, 30800 kPa, x1 = 0.1194	792.3 kg/m3
348.7 K, 32790 kPa, x1 = 0.1194	793.6 kg/m3
351.6 K, 4100 kPa, x1 = 0.3067	706.4 kg/m3
351.6 K, 4800 kPa, x1 = 0.3067	707.5 kg/m3
351.6 K, 5500 kPa, x1 = 0.3067	708.6 kg/m3
351.6 K, 5600 kPa, x1 = 0.3067	708.6 kg/m3
351.6 K, 6200 kPa, x1 = 0.3067	709.7 kg/m3
351.6 K, 6900 kPa, x1 = 0.3067	710.7 kg/m3
351.6 K, 8600 kPa, x1 = 0.3067	713.5 kg/m3
351.6 K, 10400 kPa, x1 = 0.3067	716.2 kg/m3
351.6 K, 13700 kPa, x1 = 0.3067	721.2 kg/m3
351.6 K, 17000 kPa, x1 = 0.3067	725.7 kg/m3
351.6 K, 20300 kPa, x1 = 0.3067	730.3 kg/m3
351.6 K, 20700 kPa, x1 = 0.3067	730.8 kg/m3
351.6 K, 27400 kPa, x1 = 0.3067	738.9 kg/m3
351.6 K, 30700 kPa, x1 = 0.3067	742.5 kg/m3
373.8 K, 4800 kPa, x1 = 0.3067	677.2 kg/m3
373.8 K, 4900 kPa, x1 = 0.3067	678.1 kg/m3
373.8 K, 5500 kPa, x1 = 0.3067	679.6 kg/m3
373.8 K, 6200 kPa, x1 = 0.3067	680.6 kg/m3
373.8 K, 6900 kPa, x1 = 0.3067	682.1 kg/m3
373.8 K, 8600 kPa, x1 = 0.3067	685.1 kg/m3
373.8 K, 10300 kPa, x1 = 0.3067	688.2 kg/m3
373.8 K, 16700 kPa, x1 = 0.3067	698.5 kg/m3
373.8 K, 17400 kPa, x1 = 0.3067	699.5 kg/m3
373.8 K, 24000 kPa, x1 = 0.3067	709.1 kg/m3
373.8 K, 30800 kPa, x1 = 0.3067	718.4 kg/m3
373.8 K, 36900 kPa, x1 = 0.3067	725.7 kg/m3
373.8 K, 37700 kPa, x1 = 0.3067	726.8 kg/m3
373.8 K, 44200 kPa, x1 = 0.3067	734.3 kg/m3
373.8 K, 51200 kPa, x1 = 0.3067	741.9 kg/m3
375.1 K, 1860 kPa, x1 = 0.1194	732.3 kg/m3
375.1 K, 2200 kPa, x1 = 0.1194	733.4 kg/m3
375.1 K, 2880 kPa, x1 = 0.1194	734.5 kg/m3
375.1 K, 3430 kPa, x1 = 0.1194	735 kg/m3
375.1 K, 4460 kPa, x1 = 0.1194	736.7 kg/m3
375.1 K, 5830 kPa, x1 = 0.1194	738.3 kg/m3
375.1 K, 6720 kPa, x1 = 0.1194	740 kg/m3
375.1 K, 7330 kPa, x1 = 0.1194	740.6 kg/m3
375.1 K, 10280 kPa, x1 = 0.1194	745 kg/m3
375.1 K, 13770 kPa, x1 = 0.1194	749.6 kg/m3
375.1 K, 16990 kPa, x1 = 0.1194	753.6 kg/m3
375.1 K, 20680 kPa, x1 = 0.1194	758.2 kg/m3
375.1 K, 23900 kPa, x1 = 0.1194	761.7 kg/m3
375.1 K, 27390 kPa, x1 = 0.1194	766.4 kg/m3
375.1 K, 30540 kPa, x1 = 0.1194	769.4 kg/m3
375.1 K, 34240 kPa, x1 = 0.1194	773.7 kg/m3
375.1 K, 37600 kPa, x1 = 0.1194	777.3 kg/m3
375.1 K, 41300 kPa, x1 = 0.1194	781 kg/m3
375.1 K, 44240 kPa, x1 = 0.1194	783.5 kg/m3
375.1 K, 47940 kPa, x1 = 0.1194	787.2 kg/m3
421 K, 6400 kPa, x1 = 0.3067	620.7 kg/m3
421 K, 6900 kPa, x1 = 0.3067	622.8 kg/m3
421 K, 8600 kPa, x1 = 0.3067	628.3 kg/m3
421 K, 10500 kPa, x1 = 0.3067	633.8 kg/m3
421 K, 12400 kPa, x1 = 0.3067	638.2 kg/m3
421 K, 13800 kPa, x1 = 0.3067	643 kg/m3
421 K, 17300 kPa, x1 = 0.3067	652 kg/m3
421 K, 20700 kPa, x1 = 0.3067	659.9 kg/m3
421 K, 24300 kPa, x1 = 0.3067	667 kg/m3
421 K, 30700 kPa, x1 = 0.3067	678.1 kg/m3
